From patent publication US10328077B2 (CELGENE CORPORATION, priority 2016, dated 2019)

Tests used:
[1] = test system: CD11b expression in THP-1 (AML) cells; assay: LSD-1 CD11b cellular assay (flow cytometry); settings: Homo sapiens, THP-1, 96 h, read-out: THP-1 IC50
human LSD-1 = human LSD-1 (Homo sapiens (Human), UniProt O60341); assay: In vitro enzyme inhibition assay LSD-1 (TR-FRET); format: biochemical; settings: TR-FRET, H3K4me1-biotin labeled peptide
Text: This assay determines the ability of a test compound to inhibit LSD-1 demethylase activity.
The enzymatic assay of LSD-1 activity is based on Time Resolved-Fluorescence Resonance Energy Transfer (TR-FRET) detection.

IC50 [1]	IC50 (human LSD-1)	Compound
< 100 nM	< 100 nM	Cn1c(N2CCC(N)CC2)nc(-c2ccc(C#N)c(F)c2)c(-c2ccc(N3CCOCC3)nc2)c1=O [Example 68, 4-[2-(4-amino-piperidin-1-yl)-1-methyl-5-(6-morpholin-4-yl-pyridin-3-yl)-6-oxo-1,6-dihydro-pyrimidin-4-yl]-2-fluoro-benzonitrile]
< 100 nM	< 100 nM	COc1ccc(-c2c(-c3ccc(C#N)c(F)c3)nc(N3CCC(N)CC3)n(CC(N)=O)c2=O)cc1 [Example 16, 2-[2-(4-amino-piperidin-1-yl)-4-(4-cyano-3-fluoro-phenyl)-5-(4-methoxy-phenyl)-6-oxo-6H-pyrimidin-1-yl]-acetamide]
< 100 nM	< 100 nM	COc1ccc(-c2c(-c3ccc(C#N)c(F)c3)nc(N3CCC(C)(N)CC3)n(C)c2=O)cc1F [Example 32, 4-[2-(4-amino-4-methyl-piperidin-1-yl)-5-(3-fluoro-4-methoxy-phenyl)-1-methyl-6-oxo-1,6-dihydro-pyrimidin-4-yl]-2-fluoro-benzonitrile]
< 100 nM	< 100 nM	COc1ccc(-c2c(-c3ccc(C#N)c(F)c3)nc(N3CCC[C@@H](N)C3)n(C)c2=O)cc1 [Example 30, 4-[2-((3R)-3-aminopiperidyl)-5-(4-methoxyphenyl)-1-methyl-6-oxohydro-pyrimidin-4-yl]-2-fluorobenzenecarbonitrile]
< 100 nM	< 100 nM	COc1ccc(-c2c(-c3ccc(C#N)c(F)c3)nc(N3CC[C@H](N)[C@H](F)C3)n(C)c2=O)cc1 [Example 79, 4-[2-((4S, 3R)-4-amino-3-fluoro-piperidin-1-yl)-5-(4-methoxy-phenyl)-1-methyl-6-oxo-1,6-dihydro-pyrimidin-4-yl]-2-fluoro-benzonitrile]
< 100 nM	< 100 nM	CNC1CCN(c2nc(-c3ccc(C#N)c(F)c3)c(-c3ccc4c(cnn4C)c3)c(=O)n2C)CC1 [Example 87, 2-fluoro-4-[1-methyl-2-[4-(methylamino)piperidin-1-yl]-5-(1-methylindazol-5-yl)-6-oxopyrimidin-4-yl] benzonitrile]
< 100 nM	< 100 nM	Cn1c(N2CCC(N)CC2)nc(-c2ccc(C#N)c(F)c2)c(-c2ccc(S(C)(=O)=O)cc2)c1=O [Example 105, 4-[2-(4-aminopiperidin-1-yl)-1-methyl-5-(4-methylsulfonylphenyl)-6-oxopyrimidin-4-yl]-2-fluorobenzonitrile]
< 100 nM	< 100 nM	CN(C)C1CCN(c2nc(-c3ccc(C#N)c(F)c3)c(-c3ccc4cn[nH]c4c3)c(=O)n2C)CC1 [Example 84, 4-[2-(4-dimethylamino-piperidin-1-yl)-5-(2H-indazol-6-yl)-1-methyl-6-oxo-1,6-dihydro-pyrimidin-4-yl]-2-fluoro-benzonitrile]
< 100 nM	< 100 nM	CNc1ccc(-c2c(-c3ccc(C#N)c(F)c3)nc(N3CCC(N)CC3)n(C)c2=O)cc1F [Example 91, 4-[2-(4-aminopiperidin-1-yl)-5-[3-fluoro-4-(methylamino)phenyl]-1-methyl-6-oxopyrimidin-4-yl]-2-fluorobenzonitrile]
< 100 nM	< 100 nM	CNCC1CN(c2nc(-c3ccc(C#N)c(F)c3)c(-c3ccc(OC)cc3)c(=O)n2C)C1 [Example 70, 2-fluoro-4-[5-(4-methoxy-phenyl)-1-methyl-2-(3-methylaminomethyl-azetidin-1-yl)-6-oxo-1,6-dihydro-pyrimidin-4-yl]-benzonitrile]
< 100 nM	< 100 nM	CN(C)C1CCN(c2nc(-c3ccc(C#N)c(F)c3)c(-c3ccc4cn(C)nc4c3)c(=O)n2C)CC1 [Example 80, 4-[2-(4-dimethylamino-piperidin-1-yl)-1-methyl-5-(2-methyl-2H-indazol-6-yl)-6-oxo-1,6-dihydro-pyrimidin-4-yl]-2-fluoro-benzonitrile]
< 100 nM	< 100 nM	CN(C)C1CCN(c2nc(-c3ccc(C#N)c(F)c3)c(-c3ccc4c(cnn4C)c3)c(=O)n2C)CC1 [Example 72, 4-[2-(4-dimethylamino-piperidin-1-yl)-1-methyl-5-(1-methyl-1H-indazol-5-yl)-6-oxo-1,6-dihydro-pyrimidin-4-yl]-2-fluoro-benzonitrile]
< 100 nM	< 100 nM	COc1ccc(-c2c(-c3ccc(C#N)c(F)c3)nc(N3CCCNCC3)n(C)c2=O)cc1F [Example 46, 4-[2-[1,4]diazepan-1-yl-5-(3-fluoro-4-methoxy-phenyl)-1-methyl-6-oxo-1,6-dihydro-pyrimidin-4-yl]-2-fluoro-benzonitrile]
< 100 nM	< 100 nM	COCc1ccc(-c2c(-c3ccc(C#N)c(F)c3)nc(N3CCC(N)CC3)n(C)c2=O)cc1 [Example 107, 4-[2-(4-aminopiperidin-1-yl)-5-[4-(methoxymethyl)phenyl]-1-methyl-6-oxopyrimidin-4-yl]-2-fluorobenzonitrile]
< 100 nM	< 100 nM	Cn1c(N2CCC(N)CC2)nc(-c2ccc(C#N)c(F)c2)c(-c2ccc3[nH]ccc3c2)c1=O [Example 73, 4-[2-(4-amino-piperidin-1-yl)-5-(1H-indol-5-yl)-1-methyl-6-oxo-1,6-dihydro-pyrimidin-4-yl]-2-fluoro-benzonitrile]
< 100 nM	< 100 nM	Cn1cc2cc(-c3c(-c4ccc(C#N)c(F)c4)nc(N4CCC(N)CC4)n(C)c3=O)ccc2n1 [Example 37, 4-[2-(4-aminopiperidyl)-1-methyl-5-(2-methyl(2H-indazol-5-yl))-6-oxohydropyrimidin-4-yl]-2-fluorobenzenecarbonitrile]
< 100 nM	< 100 nM	Cn1c(N2CCC(N)CC2)nc(-c2ccc(C#N)c(F)c2)c(-c2ccc3cn[nH]c3c2)c1=O [Example 77, 4-[2-(4-amino-piperidin-1-yl)-5-(1H-indazol-6-yl)-1-methyl-6-oxo-1,6-dihydro-pyrimidin-4-yl]-2-fluoro-benzonitrile]
< 100 nM	< 100 nM	CCOc1ccc(-c2c(-c3ccc(C#N)c(F)c3)nc(N3CCC(N)CC3)n(C)c2=O)cn1 [Example 94, 4-[2-(4-aminopiperidin-1-yl)-5-(6-ethoxypyridin-3-yl)-1-methyl-6-oxopyrimidin-4-yl]-2-fluorobenzonitrile]
< 100 nM	< 100 nM	COc1ccc(-c2c(-c3ccc(C#N)c(F)c3)nc(N(C)C[C@@H]3CCNC3)n(C)c2=O)cc1 (stereo in doubt) [Example 56, 2-fluoro-4-[5-(4-methoxy-phenyl)-1-methyl-2-(methyl-pyrrolidin-3-ylmethyl-amino)-6-oxo-1,6-dihydro-pyrimidin-4-yl]-benzonitrile]
< 100 nM	< 100 nM	CNC1CCN(c2nc(-c3ccc(C#N)c(F)c3)c(-c3ccc(OC)cc3)c(=O)n2C)CC1 [Example 11, 2-fluoro-4-[5-(4-methoxy-phenyl)-1-methyl-2-(4-methylamino-piperidin-1-yl)-6-oxo-1,6-dihydro-pyrimidin-4-yl]-benzonitrile]
< 100 nM	< 100 nM	CNC1CCN(c2nc(-c3ccc(C#N)c(F)c3)c(-c3ccc(N(C)C)nc3)c(=O)n2C)CC1 [Example 83, 4-[5-(6-dimethylamino-pyridin-3-yl)-1-methyl-2-(4-methylamino-piperidin-1-yl)-6-oxo-1,6-dihydro-pyrimidin-4-yl]-2-fluoro-benzonitrile]
< 100 nM	< 100 nM	COc1ccc(-c2c(-c3ccc(C#N)c(F)c3)nc(N3CCC4(CCNC4)CC3)n(C)c2=O)cc1F [Example 22, 4-[2-(2,8-diaza-spiro[4.5]dec-8-yl)-5-(3-fluoro-4-methoxy-phenyl)-1-methyl-6-oxo-1,6-dihydro-pyrimidin-4-yl]-2-fluorobenzonitrile]
< 100 nM	< 100 nM	CN(C)c1ccc(-c2c(-c3ccc(C#N)c(F)c3)nc(N3CCCNCC3)n(C)c2=O)cn1 [Example 63, 4-[2-[1,4]diazepan-1-yl-5-(6-dimethylamino-pyridin-3-yl)-1-methyl-6-oxo-1,6-dihydro-pyrimidin-4-yl]-2-fluoro-benzonitrile]
< 100 nM	< 100 nM	COc1ccc(-c2c(-c3ccc(C#N)c(F)c3)nc(N3CC[C@@H](N)[C@@H](F)C3)n(C)c2=O)cc1 [Example 78, 4-[2-((4R, 3S)-4-amino-3-fluoro-piperidin-1-yl)-5-(4-methoxy-phenyl)-1-methyl-6-oxo-1,6-dihydro-pyrimidin-4-yl]-2-fluoro-benzonitrile]

Compound	IC50 [1]	IC50 (human LSD-1)
Cn1c(N2CCC(N)CC2)nc(-c2ccc(C#N)cc2)c(-c2ccc(C(N)=O)c(F)c2)c1=O [Example 41, 4-[2-(4-aminopiperidyl)-6-(4-cyanophenyl)-3-methyl-4-oxo(3-hydropyrimidin-5-yl)]-2-fluorobenzamide]	100 to 1000 nM	< 100 nM
COc1ccc(-c2c(-c3ccc(C#N)c(F)c3)nc(N3CC[C@H](N)C3)n(C)c2=O)cc1F [Example 29, 4-[2-((3S)-3-amino-pyrrolidin-1-yl)-5-(3-fluoro-4-methoxy-phenyl)-1-methyl-6-oxo-1,6-dihydro-pyrimidin-4-yl]-2-fluoro-benzonitrile]	100 to 1000 nM	< 100 nM
COc1ccc(-c2c(-c3ccc(C#N)c(F)c3)nc(NC[C@@H]3CCNC3)n(C)c2=O)cc1 [Example 52, 2-fluoro-4-{5-(4-methoxy-phenyl)-1-methyl-6-oxo-2-[(3R)-(pyrrolidin-3-ylmethyl)-amino]-1,6-dihydro-pyrimidin-4-yl}-benzonitrile]	100 to 1000 nM	< 100 nM
COc1ccc(-c2c(-c3ccc(C#N)c(F)c3)nc(N3CCC[C@@H](N)C3)n(C)c2=O)cc1F [Example 25, 4-[2-((3R)-3-aminopiperidyl)-5-(3-fluoro-4-methoxyphenyl)-1-methyl-6-oxohydropyrimidin-4-yl]-2-fluorobenzenecarbonitrile]	< 100 nM	< 100 nM
